Measurements as given in ChEMBL document CHEMBL1124263 (J Med Chem, 1988).

What was measured:
[1] = molecular target: T1, Serotonin 2 (5-HT2) receptor (Rattus norvegicus, UniProt P30994+P08909+P14842)
[2] = molecular target: 5-hydroxytryptamine receptor 1B (Rattus norvegicus, UniProt P28564); assay: biochemical
[3] = molecular target: T1, Serotonin 2 (5-HT2) receptor; assay: Ability to displace 0.75 nM [3H]ketanserin in 5-hydroxytryptamine 2 receptor from rat frontal cortex homogenate; assay type: tissue-based

Sequence of 5-hydroxytryptamine receptor 1B (P28564 whole entry): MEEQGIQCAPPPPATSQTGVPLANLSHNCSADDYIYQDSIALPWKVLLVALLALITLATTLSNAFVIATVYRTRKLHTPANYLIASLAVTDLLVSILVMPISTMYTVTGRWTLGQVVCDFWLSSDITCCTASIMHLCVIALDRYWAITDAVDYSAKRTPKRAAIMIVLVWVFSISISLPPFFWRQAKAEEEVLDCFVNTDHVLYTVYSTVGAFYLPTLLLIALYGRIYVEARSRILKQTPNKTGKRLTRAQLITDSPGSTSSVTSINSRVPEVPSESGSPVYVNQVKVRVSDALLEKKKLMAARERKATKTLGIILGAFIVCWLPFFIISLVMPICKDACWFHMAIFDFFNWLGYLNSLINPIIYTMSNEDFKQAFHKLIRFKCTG

SMILES: COc1cccc2[nH]cc(C[C@@H](C)N)c12
- Log Ki [1]: -5.84
- Ki [2]: 776 nM

SMILES: COc1ccc2c(C[C@@H](C)N)c[nH]c2c1
- Ki [3]: > 10000 nM
- Ki [2]: 2140 nM

SMILES: C[C@H](N)Cc1c[nH]c2cccc(O)c12
- Log Ki [1]: -5.21
- Ki [2]: 4070 nM

SMILES: COc1cccc2[nH]cc(C[C@H](C)N)c12
- Log Ki [1]: -6.02
- Ki [2]: 2690 nM

SMILES: COc1ccc2[nH]cc(C[C@@H](C)N)c2c1
- Log Ki [1]: -5.89
- Ki [2]: 380 nM

SMILES: COc1ccc2c(C[C@H](C)N)c[nH]c2c1
- Ki [3]: > 10000 nM
- Ki [2]: 7240 nM

SMILES: C[C@@H](N)Cc1c[nH]c2cccc(O)c12
- Log Ki [1]: -5.46
- Ki [2]: 1550 nM

SMILES: COc1ccc2[nH]cc(C[C@H](C)N)c2c1
- Log Ki [1]: -6.15
- Ki [2]: 417 nM
